According to patent US10336761B2, “TGFβ receptor antagonist” (BRISTOL-MYERS SQUIBB COMPANY, priority 2015, dated 2019):

Biological target: HIS-TGFβR1 T204D (Homo sapiens (Human), UniProt P36897, T204D)
Test: HTRF probe-displacement assay, HIS-TGFβR1 T204D
Format: binding
Details: 1 hour at room temperature

Chain of HIS-TGFβR1 T204D (P36897 34-503 T204D): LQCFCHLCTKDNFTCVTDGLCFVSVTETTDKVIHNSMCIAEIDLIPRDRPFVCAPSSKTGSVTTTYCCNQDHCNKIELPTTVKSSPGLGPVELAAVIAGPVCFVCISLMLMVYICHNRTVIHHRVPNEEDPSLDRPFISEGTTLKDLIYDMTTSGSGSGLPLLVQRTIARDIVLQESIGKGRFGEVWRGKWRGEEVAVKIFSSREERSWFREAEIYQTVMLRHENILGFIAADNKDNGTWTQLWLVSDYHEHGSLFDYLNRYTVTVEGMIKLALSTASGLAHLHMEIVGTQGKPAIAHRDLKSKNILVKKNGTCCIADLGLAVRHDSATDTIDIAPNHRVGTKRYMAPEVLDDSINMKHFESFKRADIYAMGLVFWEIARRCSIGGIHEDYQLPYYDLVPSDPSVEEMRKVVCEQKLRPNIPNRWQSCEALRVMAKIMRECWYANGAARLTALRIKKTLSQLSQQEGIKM

SMILES | IC50
COc1cccc(-c2nc(Nc3ccncc3N)c3cccn3n2)n1 [Example 95, 4-N-[2-(6-methoxypyridin-2-yl)pyrrolo[2,1-f][1,2,4]triazin-4-yl]pyridine-3,4-diamine] | 0.02 µM
O=C(NCCCN1CCCC1=O)c1cnccc1Nc1nc(-c2ccccn2)nn2cccc12 [Example 149, N-[3-(2-oxopyrrolidin-1-yl)propyl]-4-{[2-(pyridin-2-yl)pyrrolo[2,1-f][1,2,4]triazin-4-yl]amino}pyridine-3-carboxamide] | 0.049 µM
Fc1cnccc1Nc1nc(-c2ccccn2)nn2ccc(CN3CCOCC3)c12 [Example 290, 3-fluoro-N-[5-(morpholin-4-ylmethyl)-2-(pyridin-2-yl)pyrrolo[2,1-f][1,2,4]triazin-4-yl]pyridin-4-amine] | 0.0012 µM
C[C@@H](NCc1ccn2nc(-c3ccccn3)nc(Nc3ccncc3F)c12)C(C)(C)C [Example 300, N-[5-({[(2R)-3,3-dimethylbutan-2-yl]amino}methyl)-2-(pyridin-2-yl)pyrrolo[2,1-f][1,2,4]triazin-4-yl]-3-fluoropyridin-4-amine] | 0.0033 µM
O=C(NC1CCC1)c1cnccc1Nc1nc(-c2cccc(C(F)F)n2)nn2cccc12 [Example 193, N-cyclobutyl-4-({2-[6-(difluoromethyl)pyridin-2-yl]pyrrolo[2,1-f][1,2,4]triazin-4-yl}amino)pyridine-3-carboxamide] | 0.023 µM
COc1cccc(-c2nc(Nc3ccnc(NCCN4CCOCC4)c3)c3cccn3n2)n1 [Example 139, 4-N-[2-(6-methoxypyridin-2-yl)pyrrolo[2,1-f][1,2,4]triazin-4-yl]-2-N-[2-(morpholin-4-yl)ethyl]pyridine-2,4-diamine] | 0.19 µM
Cc1cnc(CNCc2ccn3nc(-c4ccccn4)nc(Nc4ccncc4F)c23)cn1 [Example 305, 3-fluoro-N-[5-({[(5-methylpyrazin-2-yl)methyl]amino}methyl)-2-(pyridin-2-yl)pyrrolo[2,1-f][1,2,4]triazin-4-yl]pyridin-4-amine] | 0.0026 µM
CN1CCN(Cc2ccn3nc(-c4ccccn4)nc(Nc4ccncc4F)c23)CC1 [Example 127, 3-fluoro-N-{5-[(4-methylpiperazin-1-yl)methyl]-2-(pyridin-2-yl)pyrrolo[2,1-f][1,2,4]triazin-4-yl}pyridin-4-amine] | 0.0091 µM
CCC[C@@H](CO)NCc1ccn2nc(-c3ccccn3)nc(Nc3ccncc3F)c12 [Example 273, (2S)-2-[({4-[(3-fluoropyridin-4-yl)amino]-2-(pyridin-2-yl)pyrrolo[2,1-f][1,2,4]triazin-5-yl}methyl)amino]pentan-1-ol] | 0.0016 µM
O=C(NCCCN1CCS(=O)(=O)CC1)c1cnccc1Nc1nc(-c2ccccn2)nn2cccc12 [Example 148, N-[3-(1,1-dioxo-1,4-thiomorpholin-4-yl)propyl]-4-{[2-(pyridin-2-yl)pyrrolo[2,1-f][1,2,4]triazin-4-yl]amino}pyridine-3-carboxamide] | 0.083 µM
CC(=O)Nc1cc(Nc2nc(-c3cccc(F)n3)nn3cccc23)ccn1 [Example 291, N-(4-{[2-(6-fluoropyridin-2-yl)pyrrolo[2,1-f][1,2,4]triazin-4-yl]amino}pyridin-2-yl)acetamide] | 0.00086 µM
COc1cccc(-c2nc(Nc3ccnc(NC(C)=O)c3)c3cccn3n2)n1 [Example 97, N-(4-{[2-(6-methoxypyridin-2-yl)pyrrolo[2,1-f][1,2,4]triazin-4-yl]amino}pyridin-2-yl)acetamide] | 0.0029 µM
O=C(NCCN1CCCCC1)c1cnccc1Nc1nc(-c2ccccn2)nn2cccc12 [Example 144, N-[2-(piperidin-1-yl)ethyl]-4-{[2-(pyridin-2-yl)pyrrolo[2,1-f][1,2,4]triazin-4-yl]amino}pyridine-3-carboxamide] | 0.025 µM
NC(=O)c1cccc(-c2nc(Nc3ccncc3F)c3cccn3n2)n1 [Example 5, 6-{4-[(3-fluoropyridin-4-yl)amino]pyrrolo[2,1-f][1,2,4]triazin-2-yl}pyridine-2-carboxamide] | 0.065 µM
Cn1nccc1-c1nc(Nc2ccncc2Cl)c2cccn2n1 [Example 81, 3-chloro-N-[2-(1-methyl-1H-pyrazol-5-yl)pyrrolo[2,1-f][1,2,4]triazin-4-yl]pyridin-4-amine] | 0.36 µM
CS(=O)(=O)N(c1cc2c(Nc3ccncc3F)nc(-c3cccc(C(F)(F)F)n3)nn2c1)S(C)(=O)=O [Example 111, N-{4-[(3-fluoropyridin-4-yl)amino]-2-[6-(trifluoromethyl)pyridin-2-yl]pyrrolo[2,1-f][1,2,4]triazin-6-yl}-N-methanesulfonylmethanesulfonamide] | 0.052 µM
COc1cccc(-c2nc(Nc3ccncc3)c3c(C)ccn3n2)n1 [Example 16, N-[2-(6-methoxypyridin-2-yl)-5-methylpyrrolo[2,1-f][1,2,4]triazin-4-yl]pyridin-4-amine] | 0.0094 µM
OC[C@@H](O)CNCc1ccn2nc(-c3ccccn3)nc(Nc3ccncc3F)c12 [Example 287, (2S)-3-[({4-[(3-fluoropyridin-4-yl)amino]-2-(pyridin-2-yl)pyrrolo[2,1-f][1,2,4]triazin-5-yl}methyl)amino]propane-1,2-diol] | 0.00084 µM
O[C@H]1CCN(Cc2ccn3nc(-c4cccc(C(F)F)n4)nc(Nc4ccncc4F)c23)C1 [Example 251, (3S)-1-({2-[6-(difluoromethyl)pyridin-2-yl]-4-[(3-fluoropyridin-4-yl)amino]pyrrolo[2,1-f][1,2,4]triazin-5-yl}methyl)pyrrolidin-3-ol] | 0.00059 µM
Cc1csc(-c2nc(Nc3ccncc3)c3cccn3n2)n1 [Example 88, N-[2-(4-methyl-1,3-thiazol-2-yl)pyrrolo[2,1-f][1,2,4]triazin-4-yl]pyridin-4-amine] | 0.0015 µM
COCc1noc(CNC(=O)c2cnccc2Nc2nc(-c3cccc(C(F)F)n3)nn3cccc23)n1 [Example 205, 4-({2-[6-(difluoromethyl)pyridin-2-yl]pyrrolo[2,1-f][1,2,4]triazin-4-yl}amino)-N-{[3-(methoxymethyl)-1,2,4-oxadiazol-5-yl]methyl}pyridine-3-carboxamide] | 0.022 µM
CC(=O)Nc1cc(Nc2nc(-c3ccccn3)nn3ccc(CN4CCOCC4)c23)ccn1 [Example 293, N-(4-{[5-(morpholin-4-ylmethyl)-2-(pyridin-2-yl)pyrrolo[2,1-f][1,2,4]triazin-4-yl]amino}pyridin-2-yl)acetamide] | 0.00025 µM
COc1cccc(-c2nc(Nc3ccncc3F)c3cc(NC(=O)CNC(=O)OC(C)(C)C)cn3n2)n1 [Example 108, tert-butyl N-[({4-[(3-fluoropyridin-4-yl)amino]-2-(6-methoxypyridin-2-yl)pyrrolo[2,1-f][1,2,4]triazin-6-yl}carbamoyl)methyl]carbamate] | 0.33 µM
CCc1nnc(CNC(=O)c2cnccc2Nc2nc(-c3cccc(C(F)F)n3)nn3cccc23)o1 [Example 182, 4-({2-[6-(difluoromethyl)pyridin-2-yl]pyrrolo[2,1-f][1,2,4]triazin-4-yl}amino)-N-[(5-ethyl-1,3,4-oxadiazol-2-yl)methyl]pyridine-3-carboxamide] | 0.016 µM
Fc1cccc(-c2nc(Nc3ccncc3)c3cccn3n2)n1 [Example 213, N-[2-(6-fluoropyridin-2-yl)pyrrolo[2,1-f][1,2,4]triazin-4-yl]pyridin-4-amine] | 0.014 µM
